Experimental data: the supplement of paper PMC13207355

Assays:
Conditions in all cases: exposure time: 72 h
E13 [1] = patient-derived glioblastoma stem cells of classical subtype; test: surviving fraction (nuclei count normalised to DMSO); higher = more cells surviving (less toxic)
E31 [2] = patient-derived glioblastoma stem cells of proneural subtype; test: as above
E34 [3] = patient-derived glioblastoma stem cells of proneural subtype; test: as above
E28 [4] = patient-derived glioblastoma stem cells of classical subtype; test: as above
E21 [5] = patient-derived glioblastoma stem cells of mesenchymal subtype; test: as above
FT3469 [6] = normal neural stem cell line; test: as above
E57 [7] = patient-derived glioblastoma stem cells of mesenchymal subtype; test: as above
E13 [8] = test: phenotypic distance (Euclidean, principal components) from DMSO controls (arbitrary units); higher = stronger morphological change
E31 [9] = test: as above
E34 [10] = test: as above
E28 [11] = test: as above
E21 [12] = test: as above
FT3469 [13] = test: as above
E57 [14] = test: as above
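For phenotypic distance (Euclidean, principal components) from DMSO controls in this document: cell Painting imaging in 384-well plates, CellProfiler features reduced to at least 20 principal components, Euclidean distance versus same-plate DMSO vehicle wells (0.1% v/v), median over six images per well.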
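For surviving fraction (nuclei count normalised to DMSO) in this document: nuclei counted by high-content imaging of Hoechst-stained cells in laminin-coated 384-well plates, relative to 0.1% DMSO vehicle wells, with staurosporine as cell-death control.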

CC(C)C[C@H](NC(=O)CNC(=O)c1cc(Cl)ccc1Cl)B1OC(=O)C(CC(=O)O)(CC(=O)O)O1 [MLN9708]
Conditions | phenotypic distance | surviving fraction
E13 [1], 4.1 nM | – | 0.0208
E13 [1], 12.3 nM | – | 0.00954
E13 [1], 37 nM | – | 0.0104
E13 [1], 111.1 nM | – | 0.00174
E13 [1], 333.3 nM | – | 0.00347
E13 [1], 1000 nM | – | 0.00607
E13 [1], 3000 nM | – | 0.000868
E13 [8], 4.1 nM | 9.36 | –
E13 [8], 12.3 nM | 9.93 | –
E13 [8], 37 nM | 9 | –
E13 [8], 111.1 nM | 12.2 | –
E13 [8], 333.3 nM | 10.8 | –
E13 [8], 1000 nM | 10.1 | –
E13 [8], 3000 nM | 16.2 | –
E21 [5], 4.1 nM | – | 0.0299
E21 [5], 12.3 nM | – | 0.0187
E21 [5], 37 nM | – | 0.0103
E21 [5], 111.1 nM | – | 0.0103
E21 [5], 333.3 nM | – | 0.0084
E21 [5], 1000 nM | – | 0.00373
E21 [5], 3000 nM | – | 0.000933
E21 [12], 4.1 nM | 7.66 | –
E21 [12], 12.3 nM | 7.71 | –
E21 [12], 37 nM | 11.9 | –
E21 [12], 111.1 nM | 7.64 | –
E21 [12], 333.3 nM | 11.8 | –
E21 [12], 1000 nM | 11.7 | –
E21 [12], 3000 nM | 15.7 | –
E28 [4], 4.1 nM | – | 0.244
E28 [4], 12.3 nM | – | 0.239
E28 [4], 37 nM | – | 0.158
E28 [4], 111.1 nM | – | 0.0898
E28 [4], 333.3 nM | – | 0.0988
E28 [4], 1000 nM | – | 0.0719
E28 [4], 3000 nM | – | 0.0719
E28 [11], 4.1 nM | 3.84 | –
E28 [11], 12.3 nM | 3.91 | –
E28 [11], 37 nM | 4.06 | –
E28 [11], 111.1 nM | 7.19 | –
E28 [11], 333.3 nM | 5.5 | –
E28 [11], 1000 nM | 5.6 | –
E28 [11], 3000 nM | 6.86 | –
E31 [2], 4.1 nM | – | 0.082
E31 [2], 12.3 nM | – | 0.0803
E31 [2], 37 nM | – | 0.0151
E31 [2], 111.1 nM | – | 0.00335
E31 [2], 333.3 nM | – | 0.00669
E31 [2], 1000 nM | – | 0.00335
E31 [2], 3000 nM | – | 0.00669
E31 [9], 4.1 nM | 5.67 | –
E31 [9], 12.3 nM | 7.74 | –
E31 [9], 37 nM | 9.26 | –
E31 [9], 111.1 nM | 14.5 | –
E31 [9], 333.3 nM | 11.4 | –
E31 [9], 1000 nM | 13 | –
E31 [9], 3000 nM | 12.3 | –
E34 [3], 4.1 nM | – | 0.307
E34 [3], 12.3 nM | – | 0.293
E34 [3], 37 nM | – | 0.123
E34 [3], 111.1 nM | – | 0.0439
E34 [3], 333.3 nM | – | 0.064
E34 [3], 1000 nM | – | 0.0421
E34 [3], 3000 nM | – | 0.0549
E34 [10], 4.1 nM | 5.41 | –
E34 [10], 12.3 nM | 6.29 | –
E34 [10], 37 nM | 7.18 | –
E34 [10], 111.1 nM | 10.9 | –
E34 [10], 333.3 nM | 8.93 | –
E34 [10], 1000 nM | 12.6 | –
E34 [10], 3000 nM | 10.5 | –
E57 [7], 4.1 nM | – | 0.0256
E57 [7], 12.3 nM | – | 0.0162
E57 [7], 37 nM | – | 0.011
E57 [7], 111.1 nM | – | 0.00523
E57 [7], 333.3 nM | – | 0.00523
E57 [7], 1000 nM | – | 0.00366
E57 [7], 3000 nM | – | 0.0105
E57 [14], 4.1 nM | 11.8 | –
E57 [14], 12.3 nM | 12.3 | –
E57 [14], 37 nM | 11.3 | –
E57 [14], 111.1 nM | 10.8 | –
E57 [14], 333.3 nM | 14.4 | –
E57 [14], 1000 nM | 8.37 | –
E57 [14], 3000 nM | 8.49 | –
FT3469 [6], 4.1 nM | – | 0.412
FT3469 [6], 12.3 nM | – | 0.492
FT3469 [6], 37 nM | – | 0.439
FT3469 [6], 111.1 nM | – | 0.445
FT3469 [6], 333.3 nM | – | 0.306
FT3469 [6], 1000 nM | – | 0.156
FT3469 [6], 3000 nM | – | 0.212
FT3469 [13], 4.1 nM | 3.13 | –
FT3469 [13], 12.3 nM | 3.57 | –
FT3469 [13], 37 nM | 5.22 | –
FT3469 [13], 111.1 nM | 6.65 | –
FT3469 [13], 333.3 nM | 7.14 | –
FT3469 [13], 1000 nM | 7.83 | –
FT3469 [13], 3000 nM | 8.15 | –

COc1cc2c(cc1O)CC[C@@H]1[C@@H]2CC[C@]2(C)[C@@H](O)CC[C@@H]12 [2-methoxyestradiol]
Conditions | phenotypic distance | surviving fraction
E13 [1], 4.1 nM | – | 0.992
E13 [1], 12.3 nM | – | 0.961
E13 [1], 37 nM | – | 0.838
E13 [1], 111.1 nM | – | 1.04
E13 [1], 333.3 nM | – | 0.816
E13 [1], 1000 nM | – | 0.777
E13 [1], 3000 nM | – | 0.174
E13 [8], 4.1 nM | 0.645 | –
E13 [8], 12.3 nM | 0.821 | –
E13 [8], 37 nM | 1.01 | –
E13 [8], 111.1 nM | 1.47 | –
E13 [8], 333.3 nM | 0.958 | –
E13 [8], 1000 nM | 1.4 | –
E13 [8], 3000 nM | 5.03 | –
E21 [5], 4.1 nM | – | 0.888
E21 [5], 12.3 nM | – | 0.932
E21 [5], 37 nM | – | 0.919
E21 [5], 111.1 nM | – | 0.885
E21 [5], 333.3 nM | – | 0.928
E21 [5], 1000 nM | – | 0.803
E21 [5], 3000 nM | – | 0.257
E21 [12], 4.1 nM | 1 | –
E21 [12], 12.3 nM | 1.01 | –
E21 [12], 37 nM | 0.858 | –
E21 [12], 111.1 nM | 1.42 | –
E21 [12], 333.3 nM | 1.01 | –
E21 [12], 1000 nM | 1.82 | –
E21 [12], 3000 nM | 6.05 | –
E28 [4], 4.1 nM | – | 1.14
E28 [4], 12.3 nM | – | 0.843
E28 [4], 37 nM | – | 0.86
E28 [4], 111.1 nM | – | 0.687
E28 [4], 333.3 nM | – | 0.862
E28 [4], 1000 nM | – | 0.768
E28 [4], 3000 nM | – | 0.41
E28 [11], 4.1 nM | 0.862 | –
E28 [11], 12.3 nM | 1.15 | –
E28 [11], 37 nM | 0.941 | –
E28 [11], 111.1 nM | 1.27 | –
E28 [11], 333.3 nM | 0.698 | –
E28 [11], 1000 nM | 1.54 | –
E28 [11], 3000 nM | 3.97 | –
E31 [2], 4.1 nM | – | 1.08
E31 [2], 12.3 nM | – | 0.913
E31 [2], 37 nM | – | 0.985
E31 [2], 111.1 nM | – | 0.862
E31 [2], 333.3 nM | – | 0.731
E31 [2], 1000 nM | – | 0.63
E31 [2], 3000 nM | – | 0.194
E31 [9], 4.1 nM | 0.701 | –
E31 [9], 12.3 nM | 0.672 | –
E31 [9], 37 nM | 0.712 | –
E31 [9], 111.1 nM | 0.758 | –
E31 [9], 333.3 nM | 0.88 | –
E31 [9], 1000 nM | 1.61 | –
E31 [9], 3000 nM | 5.31 | –
E34 [3], 4.1 nM | – | 0.925
E34 [3], 12.3 nM | – | 0.876
E34 [3], 37 nM | – | 1.11
E34 [3], 111.1 nM | – | 1.07
E34 [3], 333.3 nM | – | 1.02
E34 [3], 1000 nM | – | 0.876
E34 [3], 3000 nM | – | 0.388
E34 [10], 4.1 nM | 0.764 | –
E34 [10], 12.3 nM | 2.41 | –
E34 [10], 37 nM | 0.956 | –
E34 [10], 111.1 nM | 0.641 | –
E34 [10], 333.3 nM | 0.508 | –
E34 [10], 1000 nM | 1.21 | –
E34 [10], 3000 nM | 4.96 | –
E57 [7], 4.1 nM | – | 1.04
E57 [7], 12.3 nM | – | 1.02
E57 [7], 37 nM | – | 1.09
E57 [7], 111.1 nM | – | 1.06
E57 [7], 333.3 nM | – | 1.03
E57 [7], 1000 nM | – | 0.891
E57 [7], 3000 nM | – | 0.19
E57 [14], 4.1 nM | 0.835 | –
E57 [14], 12.3 nM | 1.06 | –
E57 [14], 37 nM | 0.97 | –
E57 [14], 111.1 nM | 0.943 | –
E57 [14], 333.3 nM | 0.975 | –
E57 [14], 1000 nM | 2.06 | –
E57 [14], 3000 nM | 7.41 | –
FT3469 [6], 4.1 nM | – | 0.794
FT3469 [6], 12.3 nM | – | 0.981
FT3469 [6], 37 nM | – | 1
FT3469 [6], 111.1 nM | – | 0.858
FT3469 [6], 333.3 nM | – | 0.846
FT3469 [6], 1000 nM | – | 0.855
FT3469 [6], 3000 nM | – | 0.527
FT3469 [13], 4.1 nM | 1.02 | –
FT3469 [13], 12.3 nM | 0.62 | –
FT3469 [13], 37 nM | 0.868 | –
FT3469 [13], 111.1 nM | 0.854 | –
FT3469 [13], 333.3 nM | 0.793 | –
FT3469 [13], 1000 nM | 0.919 | –
FT3469 [13], 3000 nM | 3.47 | –
